The values below come from patent publication EP0443862A1, “Triamine derivatives and their acid-addition salts” (SUMITOMO PHARMACEUTICALS COMPANY, LIMITED, priority 1990, dated 1991).

The structures appear in SMILES notation. Bounds are passed on as bounds.

The test system of the test is NMDA-induced tonic convulsion. The experiment in a line: Inhibition of NMDA-induced tonic convulsion in mice. The test is classed as in vivo. To be noted: Mus musculus, ip, 0.5 h, i.p., 30 minutes before NMDA injected intracerebroventicularly, read-out: Inhibition potency of NMDA-induced tonic convulsion (ED50; mg/kg, i.p.). The method, then: A test compound was injected intraperitoneally in mice. After 30 minutes from the administration, NMDA was injected intracerebroventicularly, and it was observed whether there was a tonic convulsion. ED₅₀ (mg/kg, i.p.) was calculated out from the inhibition rates.
Turning to `c1cnc2c(NCCNCCNc3cccc4cccnc34)cccc2c1` [Example 1], the ED50 was 16.4 mg/kg.

On to `c1ccc2c(NCCNCCNc3cccc4ccccc34)cccc2c1` [Example 2], for which the ED50 was greater than 30 mg/kg.

In the case of `c1cc2c(c(NCCNCCNc3cccc4c3CCCC4)c1)CCCC2` [Example 3], the ED50 was greater than 30 mg/kg.

Consider `c1ccc2c(NCCCNCCNc3cccc4ccccc34)cccc2c1` [Example 4], for which the ED50 was greater than 30 mg/kg.

`Clc1ccc(NCCNCCNc2ccc(Cl)c3ccccc23)c2ccccc12` [Example 5]: the ED50 amounted to 24.8 mg/kg.
